The results in this text go back to patent US12065435B2, “Compounds for the treatment of glycogen storage disorders” (HADASIT MEDICAL RESEARCH SERVICES AND DEVELOPMENT LTD., priority 2017, dated 2024).

The structures appear in SMILES notation.

The subject of data set [1] is polyglucosan body (PB) in APBD patient-derived fibroblasts. In words: High content (image-based) PAS screening assay for polyglucosan bodies. Type of data set: cell-based, human. The conditions noted are these: 0, 1, 5, 10 and 50 μM. As to the method:
All the steps of the assay were performed automatically using a Freedom Evo 150 liquid handling robot (Tecan). APBD patient-derived fibroblasts were seeded at a density of 800 cells/well in DMEM (Gibco) supplemented with 1 mM sodium pyruvate (Gibco), 1% antibiotics (Biological Industries, Israel) and 5% fetal bovine serum (Hyclone) into 384 well microclear plates (Greiner). The plates were transferred by the robotic arm (RoMa) into an automated incubator (Liconic), integrated with the robotic system, where they were incubated at 37° C. with 5% CO2. Following 24 h incubation, the medium was replaced by the robot using medium supplemented with 10 μM of each screened compound (0.1% DMSO final concentration, all prepared by the robot). The screened compounds were part of the Diverset CL collection purchased from ChemBridge (10,084 out of 50,000 molecules).
Next, these cells were cultured for another 24 h in the automated incubator, and, using the robot, washed them with PBS (Biological Industries, Israel), the cells were fixed with 4% paraformaldehyde (PFA), washed again with PBS, neutralized the previously added PFA by ammonium chloride (Sigma Aldrich), washed with PBS, permeabilized with 0.1% Triton X-100 (Sigma Aldrich), and washed again with PBS.
Following this, a robot was used to treat the fixed cells with 0.5 g/dl diastase (or amylase, Sigma Aldrich) for 5 minutes at 37° C. in the automated incubator, wash with PBS, stained with PAS (Merck), Hoechst 33342 (Sigma Aldrich) and Cell Mask Deep Red (Molecular Probes) and wash with PBS. Images of stained cells were then acquired by the IN Cell Analyzer 2000 (GE Healthcare) and analyzed using the IN Cell Investigator (GE Healthcare) applying an algorithm that quantified the PAS signal within each Cell Mask stained cell.
Images were segmented based on the Cell Mask signal which was linked with the segmentation of the nuclei, employing an empirically established sensitivity and kernel size for allowing the best segmentation. Once these nucleus-cytoplasm complex objects were selected, the software calculated the number of these objects (cell number) as well as the intensity of the PAS signal within each of them. All the assay parameters (including the acquisition exposure times, objective, and the analysis parameters) were kept constant throughout the whole screening campaign for allowing comparison of signals obtained from different batches of assay within the campaign.
The assay was performed as mentioned above, but with compound concentrations of 1, 5, 10, and 50 μM, instead of a constant concentration of 10 μM.
The discarded data was presumably associated with cells affected by toxic compounds. In the remaining data, the measured population mean PB intensity was normalized. Based on a series of images used for training, compounds were considered as positive only where following treatment the normalized PB mean intensity was at least under −1.2 z-score of the scale. Following this approach, 85 potential hits out of the 10,084 screened compounds were selected (0.84%).

Data set [2] relates to APBD modeling mice (Gbe^Y329S/Y329S mouse model). In words: Motor parameters in APBD modeling mice. Type of data set: in vivo. The conditions noted are these: for ameliorating effect on motor parameters (summary): tested every two weeks. As to the method: This study was conducted in compounds A and B according to the schemes described in Tables 8 and 9, respectively.
As vehicle control, 0.1% DMSO was used. It is noteworthy that, in order to have a statistically significant number of animals, compound A was tested in male mice and compound B in female mice (no mixed cages were allowed).
APBD is an autosomal disease with no gender related symptoms and it was presumed that this experimental design is optimal. The mode of delivery of the compounds was intravenous (IV) injection for the first month, followed by subcutaneous injection due to lack of injection space and scaring in animal tails.
Tables 8 and 9 describe the study design for compounds A and B. both compounds were tested at the age of 4 months, two months prior to disease onset, in order to assess possible prophylactic effects, and at the age of 6 months, at disease onset, in order to assess corrective effects.
The effect of compounds A and B on various motor parameters was tested every two weeks. The results are shown in herein.
The point of reference is one time point prior to treatment initiation. Please note, since animals first treated with the compounds at 6 months of age were not injected at all before that age, they could not have been compared to animals pre-injected with vehicle. Therefore, the duration of the longitudinal studies for the cohorts first treated at the age of 6 months is shorter than that of the animals first treated at 4 months of age.

A further data set has as its system APBD skin fibroblasts. In words: Multi-parametric cell-phenotypic characterization of APBD skin fibroblasts. In kind it is cell-based, human. The conditions noted are these: APBD fibroblasts treated with compound. The text has this: FIG. 10 presents a graph showing multi-parametric cell-phenotypic characterization of healthy control (HC) and APBD skin fibroblasts. Upper panel: the extent of deviation from healthy control of the cell features shown, ordered by the amount of deviation (-log (P value)). […] The different comparisons analyzed are shown at the bottom of the panel.
Next, the multi-parametric analysis of compound A, one of the compounds tested in the Gbe^Y329S/Y329S mouse model for APBD was completed. The different cell features in APBD fibroblasts of several patients were ordered according to the extent of their deviation from the same features in healthy fibroblasts.

The next data set deals with APBD mice. The conditions noted are these: mouse, in vivo.
Where [3] appears, read: treated from 4 months of age (2 months before onset), two way ANOVA with repeated measures.
The mark [4] stands for this setting: treated from 4 months of age, Bonferroni's multiple comparisons test.
The mark [5] stands for this setting: treated from 6 months of age (at onset), two way ANOVA with repeated measures.
Where [6] appears, read: treated from 6 months of age, Bonferroni's multiple comparisons test.

In the case of `COCCN(Cc1sccc1C)C(=O)c1cc(C)[nH]c(=O)c1` [UDP #4, N-(2-methoxyethyl)-6-methyl-N-[(3-methyl-2-thienyl)methyl]-2-oxo-1,2-dihydropyridine-4-carboxamide], the “dose response of diastase resistant cell associated mean PAS intensity normalized by z-score” value in data set [1] was “lowered mean normalized PAS intensity in a non-dose responding manner”. Besides, in data set [2] (250 mg/kg, IV first month then subcutaneous), the “apathy, mobility and responsiveness to experimenter” value was “less apathic, more mobile and more responsive to intervention by the experimenter”. The “ameliorating effect on motor parameters (summary)” value in data set [2] (250 mg/kg, IV first month then subcutaneous, listed as Compound A) was “ameliorate extension reflex, grip strength and gait”. The “ameliorating effect on motor parameters (summary)” value in data set [2] (250 mg/kg, IV first month then subcutaneous, listed as compound A) was “improves the uniformity of step alteration”. Also, in data set [2] (setting [3]), the “average duration in movement in an open field test vs vehicle” value (“average duration in movement … vs vehicle” below) is on record as “not different from vehicle (p<0.1)”, the “average front paw grip strength vs vehicle” value was “not different from vehicle (p<0.1)”, the “average gait length vs vehicle” value was “not different from vehicle (p<0.1)” and the “average gait width vs vehicle” value is given as “not different from vehicle (p<0.1)”. Further, in data set [2] (setting [3]), the “average latency to fall off a metal wire vs vehicle” value is listed as “not different from vehicle (p<0.1)”; the “average latency to fall off a rotating cylinder (rotarod) vs vehicle” value (“average latency … (rotarod) vs vehicle” below) is reported as “not different from vehicle (p<0.1)”; the “average regularity of step distance (Coefficient of Variance of all R-R and L-L step distances) vs vehicle” value was “significantly different from vehicle (p<0.01)”; the “average uniformity of step alternation (|0.5-(R-L/R-R)|) vs vehicle” value is on record as “not different from vehicle (p<0.1)”. Also, in data set [2] (setting [3]), the “extension reflex vs vehicle” value was “different from vehicle with p<0.09”. Besides, in data set [2] (setting [4]), the “average duration in movement … vs vehicle” value was “no significant difference”; the “average front paw grip strength vs vehicle” value was “a significant difference (p<0.05) between vehicle and treatment at 32 days after initiation of treatment”; the “average gait length vs vehicle” value is “no significant difference”; the “average gait width vs vehicle” value is given as “no significant difference”. Besides, in data set [2] (setting [4]), the “average latency to fall off a metal wire vs vehicle” value is “no significant difference”; the “average latency … (rotarod) vs vehicle” value is listed as “no significant difference”; the “average regularity of step distance vs vehicle” value was “a significant difference (p<0.05) between vehicle and treatment at 81 days after treatments initiation”; the “average uniformity of step alternation vs vehicle” value is “a significant difference (p<0.05) between vehicle and treatment 95 days after treatment initiation”. The “extension reflex vs vehicle” value in data set [2] (setting [4]) is “no significant difference”. Moreover, in data set [2] (setting [5]), the “average duration in movement … vs vehicle” value is reported as “not different from vehicle (p<0.1)”, the “average front paw grip strength vs vehicle” value is on record as “different from vehicle with p<0.055”, the “average gait length vs vehicle” value is given as “not different from vehicle (p<0.1)” and the “average gait width vs vehicle” value is given as “not different from vehicle (p<0.1)”. In data set [2] (setting [5]), the “average latency to fall off a metal wire vs vehicle” value is recorded as “not different from vehicle (p<0.1)”, the “average latency … (rotarod) vs vehicle” value is recorded as “not different from vehicle (p<0.1)”, the “average regularity of step distance vs vehicle” value was “not different from vehicle (p<0.1)” and the “average uniformity of step alternation (|0.5-(R-L/R-R)|) vs vehicle” value is “significantly different from vehicle (p<0.06)”. Moreover, in data set [2] (setting [5]), the “extension reflex vs vehicle” value is listed as “not different from vehicle (p<0.1)”. Further, in data set [2] (setting [6]), the “average duration in movement … vs vehicle” value is reported as “no significant difference”, the “average front paw grip strength vs vehicle” value is “no significant difference”, the “average gait length vs vehicle” value is listed as “no significant difference” and the “average gait width vs vehicle” value is recorded as “no significant difference”. Moreover, in data set [2] (setting [6]), the “average latency to fall off a metal wire vs vehicle” value is recorded as “no significant difference”; the “average latency … (rotarod) vs vehicle” value was “no significant difference”; the “average regularity of step distance vs vehicle” value is on record as “no significant difference”; the “average uniformity of step alternation vs vehicle” value was “a significant difference (p<0.05) between vehicle and treatment 95 days after treatment initiation”. The “extension reflex vs vehicle” value in data set [2] (setting [6]) was “no significant difference”. In the data set with APBD skin fibroblasts, the “area of respiring (TMRE labeled) mitochondria” value is reported as “decreased” and the nuclear intensity entry is on record as “increased”.
Take `CO[C@H]1C[C@@H]2CC[C@@H](C)[C@@](O)(O2)C(=O)C(=O)N2CCCC[C@H]2C(=O)O[C@H]([C@H](C)C[C@@H]2CC[C@@H](O)[C@H](OC)C2)CC(=O)[C@H](C)/C=C(\C)[C@@H](O)[C@@H](OC)C(=O)[C@H](C)C[C@H](C)/C=C/C=C/C=C/1C` [rapamycin]: the “toxic effects in APBD mice” value in the data set with APBD mice is recorded as “toxic effects”.
